Source: US20230027495A1, “METHODS OF TREATING CANCER WITH A COMBINATION OF AN ANTI-PD-1 ANTIBODY AND AN ANTI-TISSUE FACTOR ANTIBODY-DRUG CONJUGATE” (Genmab A/S, priority 2019, published 2023)
“Also recorded” adds a separate entry of the source. Non-standard residues stand in square brackets, D forms with d. Residues, ends and D or L forms follow the SMILES beside them. *: point of attachment. Dolaproine = CO[C@@H]([C@@H]1CCCN1)[C@@H](C)C(=O)O; Dil = CC[C@H](C)[C@H](NC)[C@@H](CC(=O)O)OC; X1 = C[C@@H](N*)[C@@H](O)c1ccccc1; NMeV = CN[C@H](C(=O)O)C(C)C

Experiments:
[1] = tested on: HeLa cells; test: Western blot of ER stress (IRE1 and JNK phosphorylation) in MMAE-treated HeLa cells; type: cell-based; settings: 100 nM MMAE, 16 hours
Protocol: HeLa cells, a cervical cancer cell line, were cultured in Minimum Essential Medium (MEM) with 10% FBS, 10 mM HEPES, 1 mM sodium pyruvate, 2 mM L-glutamine, penicillin (100U/ml), and streptomycin (100 μg/ml). HeLa cells were treated with 100 nM MMAE for 16 hours and harvested in radioimmunoprecipitation assay buffer (RIPA) buffer for western blot analysis. Treatment with MMAE led to phosphorylation of the serine threonine kinase IRE1, indicating activation of ER stress. Severe ER stress is a prerequisite to the exposure of pro-phagocytic signals on the surface of tumor cells, and can be indicated by activation of JNK signaling by phosphorylated IRE1.

[2] = tested on: HeLa cells; test: Imaging of RFP-tubulin microtubule network and ER in HeLa cells in the presence of MMAE; type: cell-based; settings: 100 nM MMAE
Protocol: HeLa cells were transduced with a baculovirus encoding RFP-labeled Tubulin (CellLight Tubulin-RFP, ThermoFisher Scientific) and an ER-binding dye (ER-ID Green, Enzo Life Sciences). Cells were treated with 100 nM MMAE and imaged over time in the present of MMAE. Within 2 hours, fragmentation and disassembly of the microtubule network became evident, concurrent with the breakdown of the perinuclear organized ER lattice (FIGS. 2A and 2B). The condensed and mislocalized ER skeleton indicated severe ER stress within 8 hours.

[3] = tested on: HeLa cells; test: ATP and HMGB1 secretion from MMAE-treated HeLa cells; type: cell-based; settings: 100 nM MMAE, over 24 hours, vs untreated cells
Excerpt: Induction of ICD is also characterized by the secretion of ATP and HMGB1. Extracellular ATP serves as a strong chemotactic signal, promoting immune cell migration to the tumor site. Upon arrival, extracellular HMGB1 signals through various pro-inflammatory receptors (TLR2, TLR4, RAGE) to activate antigen-presenting cells, thereby promoting immune activity within the tumor.

[4] = tested on: murine tumor cells that stably express human TF; test: Immunization of Balb/c mice with drug-killed human TF positive murine tumor cells, then tumor challenge (syngeneic model); type: in vivo; settings: mice immunized with drug-killed human TF positive tumor cells
Protocol: Mouse tumor cells are transfected with plasmid constructs encoding human tissue factor (TF) and sgRNA-guided Cas9 nuclease (sgRNA/Cas9) to generate a murine cell line that expresses the human TF. Fluorescence activated cell sorting (FACS) yields a clonal population of murine tumor cells that stably express human TF, these cells are then treated with 1 μg to 5 μg per ml of tisotumab vedotin or 100 nM of MMAE for 4 days. In order to prepare dying cells for immunization, treated murine tumor cells are overlaid atop Histopaque, and centrifuged at 2000 g for 30 minutes. Dead and dying cells are pelleted underneath the Histopaque layer, and viability assessed by trypan blue exclusion. A sample with approximately <20% live cells as measured by trypan blue exclusion is obtained. Flash-frozen tumor cells are prepared by submerging the cells in liquid nitrogen for 10 seconds, followed by immersion in 37° C. water until completely thawed. The liquid nitrogen freeze-thaw process is repeated 5 times. Dead and dying human TF positive tumor cells are resuspended in phosphate buffered saline (PBS) and 2×10^6 cells are injected into the peritoneum of immune-competent Balb/c mice. Seven days later, mice receive a second immunization with dead and dying cells prepared in the same manner.
Fourteen days after initial immunization with the dead and dying human TF positive tumor cells, mice are subcutaneously implanted with 5×10^6 wild-type tumor cells and monitored for tumor growth. […] As these effects occur in the absence of any administered therapeutic agent, the administration of cells killed by tisotumab vedotin or MMAE is sufficient to generate long-lasting protective immune memory against subsequent tumor cell challenge. Protective immune memory is amplified by treating these mice with tisotumab vedotin in combination with an antibody that binds to murine PD-1.

[5] = tested on: Tissue Factor positive cell lines; test: Cell death and ATP/HMGB1 release from Tissue Factor positive cell lines; type: cell-based; settings: Tissue Factor positive cells
Excerpt: Auristatin ADC payloads disrupt the microtubule networks resulting in altered ER localization and function, which ultimately results in ER stress.

[6] = tested on: HPAFII (pancreatic carcinoma) and MDA-MB-231 (breast carcinoma) cells; test: Western blot of ER stress pathways in HPAFII and MDA-MB-231 cells; type: cell-based
Protocol: Induction of cell death and release of ICD danger signals occurs concomitant with initiation of an ER stress response. Two Tissue Factor positive cell lines, HPAFII (pancreatic carcinoma) and MDA-MB-231 (breast cell carcinoma) were exposed to tisotumab vedotin ADC, an Isotype-MMAE ADC (H00-MMAE, IgG1 MMAE), or free MMAE for 18 hours and induction of ER stress monitored by western blot analysis. Phosphorylation of inositol-requiring transmembrane kinase/endonuclease 1 (IRE1) was detected after treatment with tisotumab vedotin ADC or MMAE free drug (FIG. 6). […] The ability for auristatins to prime the immune system to recognize tumor antigens opens the door for a myriad of combinatorial therapeutic options.

[7] = tested on: human peripheral blood mononuclear cells (PBMCs); test: Monocyte/macrophage activation in human PBMCs fed drug-killed MDA-MB-231 cells; type: cell-based
Excerpt: FIGS. 7A and 7B is a series of graphs in which Tissue Factor positive MDA-MB-231 cells killed with various agents were fed to human peripheral blood mononuclear cells (PBMCs) and immune activation assessed by increased expression of activations markers on innate CD14+ monocyte/macrophages and induction of chemokine and cytokine production.
Immunogenic cell death, as mediated by MMAE, is regulated cell death that activates adaptive immune responses against antigens from dead and dying tumor cells, and allows for the generation of robust innate immune cell activation and subsequent cytotoxic T cell responses targeted towards specific tumor cell antigens. […] Furthermore, these monocyte/macrophages conditioned by ICD-killed cells promote activation of T cells, as evidenced by production of signature inflammatory cytokines associated with cytotoxic T cell responses.

[8] = tested on: human peripheral blood mononuclear cells (PBMCs); test: T cell activation in CSFE labeled human PBMCs fed drug-killed MDA-MB-231 cells, with or without pembrolizumab; type: cell-based
Excerpt: Induction of the innate immune response following exposure to cancer cells undergoing ICD sets up secondary T cell activation, which can be enhanced by concomitant pembrolizumab treatment.

[9] = tested on: MDA-MB-231 xenograft; test: MDA-MB-231 xenograft model in humanized NSG mice; type: in vivo; settings: pembrolizumab alone, first dose 10 mg/kg, then 5 mg/kg every five days, IP
Protocol: The in vivo anti-tumor efficacy of tisotumab vedotin in combination with an anti-PD-1 monoclonal antibody was evaluated in NOD.Cg-PrkdC^scid Il2rg^tm1Wj1/SzJ (NSG) immunodeficient mice (The Jackson Laboratory, Stock No. 005557), humanized by engraftment with human CD34^+ hematopoietic stem cells (Jackson Laboratories, Sacramento). Mice were subcutaneously inoculated with 5×10^6 MDA-MB-231 cells (breast adenocarcinoma; American Tissue Culture Collection (ATCC), cat. no. HTB-26), in 100 μL phosphate-buffered saline (PBS). Before inoculation, cells were cultured in DMEM with high glucose and HEPES without L-glutamine (Lonza, cat. no. BE12-709F), 10% (v/v) donor bovine serum with iron New Zealand Origin (Thermo Fisher Scientific, DBSI, cat. no. 10371-029), 2 mM L-glutamine (Lonza, cat. no. BE17-605E), 1 mM Na-pyruvate (Lonza, cat. no. BE13-115E), MEM non-essential amino acids (Life Technologies, cat. no. 11140) and 1% (v/v) penicillin/streptomycin (Lonza, cat. no. DE17-603E), in CellSTACK culture chambers (Corning, cat. no. 3313).
Tumor size was determined by caliper measurement at least two times a week and tumor volume was calculated as 0.52×length×width^2. When tumors reached the size of 100 mm^3 mice were randomized in 7 groups (8 mice per treatment group) based on mouse cohort and tumor size (Table 1). Mice were treated with tisotumab vedotin alone (1 mg/kg or 0.5 mg/kg), intravenously, weekly for a maximum of five treatments, or in combination with an anti-PD-1 antibody (i.e., pembrolizumab, KEYTRUDA®, 50 mg concentrate, Merck & Co., Inc., Kenilworth, N.J. USA) or with anti-PD-1 antibody alone. The first dose of the anti-PD-1 antibody (i.e., pembrolizumab) was 10 mg/kg, followed by 5 mg/kg every five days for a maximum of six treatments. Mice in control groups were administered 1 mg/kg of IgG1 isotype control antibody or IgG1 isotype control antibody conjugated to MMAE intravenously, weekly for a maximum of five treatments (Table 1). The IgG1 isotype control antibody is the b12 antibody which is known to bind to HIV-1 gp120. […]

[10] = tested on: cervical cancer; settings: cited from earlier work
[11] = managed with interruptions of pembrolizumab, corticosteroids and/or other supportive care; cited from earlier work
[12] = HPAFII and MDA-MB-231 cells, 18 hours
[13] = PBMCs fed drug-exposed MDA-MB-231 cells, 48 hours

CC[C@H](C)[C@@H]([C@@H](CC(=O)N1CCC[C@H]1[C@H](OC)[C@@H](C)C(=O)N[C@H](C)[C@@H](O)c1ccccc1)OC)N(C)C(=O)[C@@H](NC(=O)[C@@H](NC)C(C)C)C(C)C [MMAE, Monomethyl auristatin E, reference compound] (H-[NMeV]V[Dil][Dolaproine]-X1)
phosphorylation of IRE1 and JNK (ER stress) [1]: led to phosphorylation of both IRE1 and JNK; also recorded: elicited severe ER stress by phosphorylation of IRE1 and JNK | microtubule network and ER localization [2]: led to disassembly of the microtubule network and subsequent ER mislocalization | time to fragmentation and disassembly of the microtubule network and breakdown of the ER lattice [2]: ≤ 2 h | time to severe ER stress (condensed and mislocalized ER skeleton) [2]: ≤ 8 h | secretion of ATP [3]: increased secretion | secretion of HMGB1 [3]: increased secretion | survival after challenge with wild-type tumor cells [4]: increased survival | tumor growth after challenge with wild-type tumor cells [4]: delayed tumor growth | ATP secretion/release [5]: drove robust A) ATP secretion; also recorded: specific to tisotumab vedotin ADC and MMAE treatment | HMGB1 release [5]: HMGB1 release; also recorded: specific to tisotumab vedotin ADC and MMAE treatment | activation of JNK (phosphorylation) [6, 12]: increased phosphorylation | activation of PERK pathway (ATF4 cleavage) [6, 12]: upregulation of ATF4 cleavage | phosphorylation of IRE1 [6, 12]: detected | activation of ER stress pathways (phosphorylation of IRE and JNK, cleavage of ATF4) ([6]; HPAFII or MDA-MB-231 cells, 16 hours): trigger multiple ER stress pathways | monocyte/macrophage activation by CD86 expression ([7]; CD14+ monocyte/macrophages, flow cytometry, PBMCs fed killed MDA-MB-231 cells, compared to IgG1-MMAE ADC or tisotumab alone): drove monocyte/macrophage activations | release of innate chemokines ([7]; PBMCs fed killed MDA-MB-231 cells, compared to IgG1-MMAE ADC or tisotumab alone): induced release of innate chemokines including MIP10 | chemotactic and inflammatory mediators from monocyte/macrophages ([7]; after uptake of killed Tissue Factor positive cells): elicit strong chemotactic and inflammatory mediators | T cell proliferation (CSFE dilution) [8, 13]: drove T cell proliferation | production of IFNγ [8, 13]: increased; also recorded: production of T cell specific cytokines | production of IL12p70 [8, 13]: increased; also recorded: production of T cell specific cytokines

pembrolizumab: anti-PD-1 monoclonal antibody, checkpoint inhibitor, also known as KEYTRUDA® [reference compound]
tumor burden as assessed by tumor volume [9]: hardly reduced tumor burden | T cell proliferation driven by tisotumab vedotin or MMAE killed cells, effect of added pembrolizumab ([8]; 2 mg/ml of pembrolizumab, 48 hours): enhanced | cytokine production after tisotumab vedotin or MMAE killed cells, effect of concomitant pembrolizumab ([8]; IL12p70 and IFNγ, 48 hours): increased | secondary T cell responses after tisotumab vedotin induced ICD, effect of pembrolizumab ([8]; concomitant pembrolizumab treatment): can be amplified | objective response rate ([10]; 200 mg Q3W, 82 patients with previously treated, advanced cervical cancer): 12% | objective response rate (ORR) ([10]; 2L+ PD-L1-positive recurrent or metastatic cervical cancer, 42% previously treated with bevacizumab): 14% | reversibility of immune-related AEs (irAEs) [11]: most irAEs were reversible
